Experimental data: patent US4847302A, “Use of certain compounds in livestock food as growth promotants for better feed utilization and improved carcass composition” (Merck & Co., Inc., priority 1988, dated 1989)
Read-outs that look alike come from different tables or passages of the source.

Tests used:
[1] = Baker et al., Fed. Proc. 42; some species of food livestock; cited from earlier work
[2] = Growth, feed conversion and carcass composition of broilers raised in floor pens for 7 weeks; assay type: in vivo; conditions: 0.5 ppm in diet
Method: Compound V (bitolterol) was compared to clenbuterol for effects on growth, feed conversion and carcass composition of broilers raised in floor pens for 7 weeks. […] Bitolterol at the highest dose improved rate of gain 2.6% (P 0.01), feed conversion 3.8% (P 0.05) and carcass protein 4.9% (P 0.10).
Clenbuterol at 0.5 ppm in the diet was administered for 7 weeks to one group and only during the last 4 weeks to another group. […] Clenbuterol given for 7 weeks improved feed conversion 3.5% (P 0.05) and appeared to improve (not significant) rate of gain 0.4%, carcass weight 0.7% and carcass protein 4.0% and to decrease (not significant) carcass fat 7.1%.

[3] = system: Isolated Chicken Hepatocytes; assay: Inhibition of lipogenesis (14C acetate incorporation) in isolated chicken hepatocytes; assay type: cell-based; conditions: Gallus gallus, Hepatocyte, 2 h
Method: Determination of anti-lipogenic activity in hepatocytes
Hepatocytes were isolated from chicken liver using the procedure for adipocytes and incubated for 2 hours at 37° C. in the presence of ^14 C acetate and test compounds. […] Isoproterenol, at the same concentrations, was used as a positive control. After incubation, 8 ml Doles reagent (isopropanol:hexane:H2 SO4, 40:10:1) was added and incubation vials were shaken at room temperature for 30 minutes. Vial contents were poured into 50 ml screw-cap tubes. Vials were then rinsed with 6 ml hexane which was poured into the appropriate 50 ml tube. Tubes were shaken by hand, 10 ml H2 O was added, and tubes were shaken again. After phase separation, 2 ml of the upper (hexane) phase was removed to scintillation vials. Hexane was evaporated by a gentle air flow and the remaining lipids were resuspended in 10 ml Scinti Verse II. ^14 C was counted in a Packard liquid scintillation counter. Data are reported as CPM of ^14 C acetate incorporated into total lipids.

[4] = system: Isolated Swine Adipocytes; assay: Stimulation of lipolysis (glycerol production) in isolated swine adipocytes; assay type: cell-based; conditions: for activation at 0.01 µM / activation at 0.05 µM / activation at 0.25 µM: Sus scrofa, Adipocyte, 2 h
Method: (§1) Fat was collected from freshly killed animals as follows: epididymal and perirenal fat from 150 to 200 g male rates; perirenal fat from 20 to 25 kg whether lambs, and perirenal and omental fat from 35 to 50 kg gilts. Immediately after collection, fat was placed in a siliconized beaker (all glassware was siliconized) containing Krebs-Ringer bicarbonate solution (KRB; pH 7.4) at 37° C. Fat was transferred to a clean beaker and finely chopped with scissors. Chopped fat was then used as such (whole adipose preparation) or treated with collagenase (isolated adipocytes).
(§2) Chopped fat was placed in a shaker containing 70 ml cell dispersion medium (CDM; 5 mM glucose, 0.1% collagenase, 4% bovine serum albumin (BSA), in KRB) and incubated at 37° C. for 1 hour with gentle shaking. Fat was then filtered to remove clumps and washed 4 times with washing medium (WM; 2.5 mM glucose, 1% BSA, in KRB) and 1 time with final suspension medium (FSM; 2.5 mM glucose, 2% essentially fatty acid free BSA, in KRB). Isolated adipocytes were then resuspended in the required amount of FSM (1 ml/flask, 3 flasks/treatment).
(§3) Whole adipose tissue from the rat (0.3 ml) or isolated adipocytes from sheep or swine (1 ml) were placed in plastic scintillation vials containing FSM (1.7 or 1 ml, respectively) and test compounds, and incubated at 37° C. for 2 hours. […] Isoproterenol, at the same concentrations, was used as a positive control. After incubation, media was removed and assayed for glycerol by a fluorometric modification of the method of Wieland (1974. Glycerol UV-method. pp. 1404. In: Bergmeyer (Ed.) Methods of Enzymatic Analysis. Verlag Chemie Weinham, Academic Press, New York).

[5] = system: Isolated Ovine Adipocytes; assay: Stimulation of lipolysis (glycerol production) in isolated ovine adipocytes; assay type: cell-based, sheep
Method: as §1, §2, §3

Rat Adipose Tissue = assay: Stimulation of lipolysis (glycerol production) in chopped rat adipose tissue; assay type: cell-based; conditions: Rattus norvegicus, 2 h
Method: as §1
as §3, with “York). […]” for “York).”

[6] = Growth promoting activity / feed utilization in livestock (general statements); assay type: in vivo; conditions: poultry, sheep or swine
[7] = In vivo testing in rats: growth, feed conversion and carcass composition; set-up: species or system rat (male Charles River CD); conditions: in diet; for Gain / Feed Intake / Weight / Carcass Composition % of Change over Control, Fat / Carcass Composition % of Change over Control, Protein: dose equivalent to 20 ppm clenbuterol (clenbuterol: 10)
Text: Eighty intact, male Charles River CD rats, 75-90 g, were housed and maintained on rat chow and water ad libitum. After four days acclimation ten rats per group were randomized by weight to treatment and pen. Compounds to be tested were premixed and added to ground rat chow using doses equivalent to 20 ppm of clenbuterol on a molecular weight basis. It had previously been determined 10 ppm of clenbuterol was the minimum dose needed to give maximum improvements in gain and feed conversion. Therefore, the results of any compound tested should cause responses similar to clenbuterol if the compound has half or more the activity of clenbuterol.

[8] = read-out: percent change compared to control, 14C acetate incorporation in fatty acids, Test 1
[9] = read-out: percent change compared to control, 14C acetate incorporation in fatty acids, Test 2
[10] = read-out: percent increase compared to control, glycerol production, Test 1
[11] = read-out: percent increase compared to control, glycerol production, Test 2

## CC(C)(C)NCC(O)c1cc(Cl)c(N)c(Cl)c1 (stereo not shown) [Clenbuterol, clenbuterol]
[1]
  enhancement of food utilization and change of carcass composition: functions in this way
[2]
  feed conversion and carcass protein, 7 weeks versus 4 weeks of administration: slightly more effective
[2]; 7 weeks, P 0.05
  improvement of feed conversion: 3.5%
[2]; 7 weeks, not significant
  decrease of carcass fat: 7.1%
  improvement of carcass protein: 4.0%
  improvement of carcass weight: 0.7%
  improvement of rate of gain: 0.4%
[3]; [8]
  inhibition at 0.01 µM: 4.2%
  inhibition at 0.05 µM: 16.4%
  inhibition at 0.25 µM: 24.6%
[3]; [9]
  inhibition at 0.01 µM: 8%
  inhibition at 0.05 µM: 18%
  inhibition at 0.25 µM: 16%
[4]; [10]
  activation at 0.01 µM: 27%
  activation at 0.05 µM: -20%
  activation at 0.25 µM: -27%
[4]; [11]
  activation at 0.01 µM: 0%
  activation at 0.05 µM: -20%
  activation at 0.25 µM: 4%
[4]; isolated swine adipocytes
  lipolytic activity (in words): lack of activity
[5]; Ovis aries, Adipocyte, 2 h, read-out: percent increase compared to control, glycerol production, Test 1
  activation at 0.05 µM: 240%
[5]; Ovis aries, Adipocyte, 2 h, read-out: percent increase compared to control, glycerol production, Test 1, 0.25 μM
  activation at 0.25 µM: 325%
[5]; Ovis aries, Adipocyte, 2 h, read-out: percent increase compared to control, glycerol production, Test 2, 0.01 μM
  activation at 0.01 µM: 186%
[5]; Ovis aries, Adipocyte, 2 h, read-out: percent increase compared to control, glycerol production, Test 2
  activation at 0.05 µM: 857%
[5]; Test 1, 0.01 μM
  percent increase compared to control, glycerol production: inactive
Rat Adipose Tissue; [10]
  activation at 0.01 µM: 12%
  activation at 0.05 µM: 26%
  activation at 0.25 µM: 21%
Rat Adipose Tissue; [11]
  activation at 0.01 µM: 10%
  activation at 0.05 µM: 10%
  activation at 0.25 µM: 16%
[6]
  activity compared with other compounds in poultry, sheep or swine: not as active as other compounds in poultry, sheep or swine
[7]; Test 1, control 7.3
  Gain: 7.8 g/day
[7]; Test 1, control 18.6
  Feed Intake: 19.2 g/day
[7]; Test 1, control 191.8
  Weight: 198.6 g
[7]; Test 1
  Carcass Composition % of Change over Control, Fat: -11.3%
  Carcass Composition % of Change over Control, Protein: 11.2%
[7]; Test 2, control 7.5
  Gain: 8.2 g/day
[7]; Test 2, control 19.3
  Feed Intake: 19.9 g/day
[7]; Test 2, control 202.3
  Weight: 216.9 g
[7]; Test 2
  Carcass Composition % of Change over Control, Fat: -11.9%
  Carcass Composition % of Change over Control, Protein: 4.3%
[7]; previously determined
  minimum dose needed to give maximum improvements in gain and feed conversion: 10 ppm
